Measurements as given in patent US6028195A, “Piperazine derivatives and process for the preparation thereof” (Samjin Pharmaceutical Co., Ltd., priority 1996, dated 2000).
In brackets after ≈: the same amount, converted by molar mass. Read-outs that look alike come from different tables or passages of the source.

Experiments:
Format in all cases: cell-based
Settings in all cases: for IC50: Homo sapiens
SKMEL-2 (human melanoma) = test: SRB assay, in vitro antitumor effect against SKMEL-2
Description: (§1) In vitro antitumor effect against human tumor cell lines.
(§2) b. 5×10^3 ~2×10^4 cells were added into each well of 96-well plate and cultured in 5% CO2 incubator, at 37° C., for 24 hours.
(§3) c. Each sample drug was dissolved in a little DMSO and diluted with the used medium to a prescribed concentration for experiments, wherein the final concentration of DMSO was controlled below 0.5%.
(§4) d. Medium of each well cultured for 24 hours as above b. was removed by aspiration. Each 200 μl of drug samples prepared in c. was added into each well and the wells were cultured for 48 hours. Tz(time zero) plates were collected at the point of time drugs were added.
(§5) e. According to the SRB assay method, cell fixing with TCA, staining with 0.4% SRB solution, washing with 1% acetic acid and elution of dye with 10 mM Tris solution were carried out on Tz plates and culture-ended plates, and then, OD values were measured at 520 nm.
(§6) a. Time zero(Tz) value was determined with measuring the SRB protein value at the point of time drugs were added.
(§7) b. Control value(C) was determined with the OD value of an well untreated with drug.
(§8) c. Drug-treated test value(T) was determined with the OD value of drug-treated well.
(§9) d. Effects of drugs were estimated with growth stimulation, net growth inhibition, net killing etc. calculated from Tz, C and T.
(§10) e. If T≥Tz, cellular response function was calculated by 100×(T-Tz)/(C-Tz), and if T<Tz, by 100×(T-Tz)/Tz.

HCT-15 (human colon) = test: SRB assay, in vitro antitumor effect against HCT-15
Description: as §1, §2, §3, §4, §5, §6, §7, §8, §9, §10

[1] = test system: A549 (human non-small lung cell); test: SRB assay, in vitro antitumor effect against A549
Description: as §1, §2, §3, §4, §5, §6, §7, §8, §9, §10

SKOV-3 (human ovarian) = test: SRB assay, in vitro antitumor effect against SKOV-3
Description: as §1, §2, §3, §4, §5, §6, §7, §8, §9, §10

XF 498 (human CNS) = test: SRB assay, in vitro antitumor effect against XF 498
Description: as §1, §2, §3, §4, §5, §6, §7, §8, §9, §10

[2] = SK-MEL-2, 48 hours, read-out: ED50 (the source's name)
[3] = HCT 15, 48 hours, read-out: ED50 (the source's name)
[4] = A549, 48 hours, read-out: ED50 (the source's name)
[5] = SK-OV-3, 48 hours, read-out: ED50 (the source's name)
[6] = XF498, XF-498, 48 hours, read-out: ED50 (the source's name)

**Q.** `COc1cc(OC)cc(N2CCN(C(=S)Nc3cc(C(C)=O)c(C)nc3OC)CC2)c1` [Example 53, 1-[(5-Acetyl-2-methoxy-6-methylpyridin-3-yl)aminothiocarbonyl]-4-(3,5-dimethoxyphenyl)piperazine] was tested. Which IC50 (SKMEL-2 (human melanoma); [2]) did it give?
**A.** Its IC50 is 0.64 µg/mL (≈ 1.44 µM).

**Q.** What about the IC50 (HCT-15 (human colon); [3]) of the same molecule?
**A.** Its IC50 is 0.71 µg/mL (≈ 1.6 µM).

**Q.** What about the IC50 [1, 4] of the same molecule?
**A.** The IC50 was 0.47 µg/mL (≈ 1.06 µM).

**Q.** And the IC50 (SKOV-3 (human ovarian); [5])?
**A.** Its IC50 is 0.47 µg/mL (≈ 1.06 µM).

**Q.** And the IC50 (XF 498 (human CNS); [6])?
**A.** The IC50 was 0.67 µg/mL (≈ 1.51 µM).

**Q.** Which results are given for `CCCc1nc(OC)c(NC(=S)N2CCN(c3cc(C)cc(C)c3)CC2)cc1C` [Example 27, 1-[(2-Methoxy-5-methyl-6-propylpyridin-3-yl)aminothiocarbonyl]-4-(3,5-dimethylphenyl)piperazine]?
**A.** IC50 (SKMEL-2 (human melanoma); [2]): 0.01 µg/mL (≈ 0.0242 µM); IC50 (HCT-15 (human colon); [3]): 0.165 µg/mL (≈ 0.4 µM); IC50 [1, 4]: 0.02 µg/mL (≈ 0.0485 µM); IC50 (SKOV-3 (human ovarian); [5]): 0.11 µg/mL (≈ 0.267 µM); IC50 (XF 498 (human CNS); XF498, 48 h, read-out: ED50): 0.046 µg/mL (≈ 0.111 µM)

**Q.** How did the IC50 (SKMEL-2 (human melanoma); [2]) turn out when `COc1cc(OC)cc(N2CCN(C(=S)Nc3cc4ccccc4nc3OC)CC2)c1` [Example 109, 1-[(2-Methoxyquinolin-3-yl)aminothiocarbonyl]-4-(3,5-dimethoxyphenyl)piperazine] was run?
**A.** Its IC50 is 0.86 µg/mL (≈ 1.96 µM).

**Q.** And the IC50 (HCT-15 (human colon); [3])?
**A.** Its IC50 is 0.49 µg/mL (≈ 1.12 µM).

**Q.** And the IC50 [1, 4]?
**A.** Its IC50 is 0.47 µg/mL (≈ 1.07 µM).

**Q.** What about the IC50 (SKOV-3 (human ovarian); [5]) of the same molecule?
**A.** The IC50 was 0.91 µg/mL (≈ 2.08 µM).

**Q.** And the IC50 (XF 498 (human CNS); [6])?
**A.** Its IC50 is 0.53 µg/mL (≈ 1.21 µM).

**Q.** Which results are given for `COc1cc(C)c(C)cc1NC(=S)N1CCN(c2cc(C)cc(C)c2)CC1` [Example 198, 1-[(4,5-Dimethyl-2-methoxyphenyl)aminothiocarbonyl]-4-(3,5-dimethylphenyl)piperazine]?
**A.** IC50 (SKMEL-2 (human melanoma); [2]): 0.008 µg/mL (≈ 0.0209 µM); IC50 (HCT-15 (human colon); [3]): 0.56 µg/mL (≈ 1.46 µM); IC50 [1, 4]: 0.021 µg/mL (≈ 0.0548 µM); IC50 (SKOV-3 (human ovarian); [5]): 0.068 µg/mL (≈ 0.177 µM); IC50 (XF 498 (human CNS); [6]): 0.072 µg/mL (≈ 0.188 µM)

**Q.** What does the source list for `COc1ccc(C)c(N2CCN(C(=O)N(C)c3cc(C)c(C)nc3OC)CC2)c1` [Example 140, 1-[N-(5,6-Dimethyl-2-methoxypyridin-3-yl)-N-methylaminocarbonyl]-4-(5-methoxy-2-methylphenyl)piperazine]?
**A.** IC50 (SKMEL-2 (human melanoma); [2]): 0.56 µg/mL (≈ 1.41 µM); IC50 (HCT-15 (human colon); [3]): 0.49 µg/mL (≈ 1.23 µM); IC50 [1, 4]: 0.33 µg/mL (≈ 0.828 µM); IC50 (SKOV-3 (human ovarian); [5]): 0.47 µg/mL (≈ 1.18 µM); IC50 (XF 498 (human CNS); [6]): 0.54 µg/mL (≈ 1.36 µM)

**Q.** Which results are given for `CCc1cc(N(C)C(=O)N2CCN(c3cc(OC)cc(OC)c3)CC2)c(OC)nc1C` [Example 143, 1-[N-(5-Ethyl-2-methoxy-6-methylpyridin-3-yl)-N-methylaminocarbonyl]-4-(3,5-dimethoxyphenyl)piperazine]?
**A.** IC50 (SKMEL-2 (human melanoma); [2]): 0.0121 µg/mL (≈ 0.0282 µM); IC50 (HCT-15 (human colon); [3]): 0.0108 µg/mL (≈ 0.0252 µM); IC50 [1, 4]: 0.0004 µg/mL (≈ 0.000933 µM); IC50 (SKOV-3 (human ovarian); [5]): 0.0095 µg/mL (≈ 0.0222 µM); IC50 (XF 498 (human CNS); [6]): 0.0009 µg/mL (≈ 0.0021 µM)

**Q.** With `COc1cc(OC)cc(N2CCN(C(=O)N(c3cc4ccccc4nc3OC)C(C)C)CC2)c1` [Example 100] as the molecule, how does the IC50 (SKMEL-2 (human melanoma); [2]) read?
**A.** The IC50 was 3.47 µg/mL (≈ 7.47 µM).

**Q.** And the IC50 (HCT-15 (human colon); [3])?
**A.** Its IC50 is 4.21 µg/mL (≈ 9.06 µM).

**Q.** And the IC50 [1, 4]?
**A.** Its IC50 is 4.54 µg/mL (≈ 9.77 µM).

**Q.** And the IC50 (SKOV-3 (human ovarian); [5])?
**A.** The IC50 was 3.02 µg/mL (≈ 6.5 µM).

**Q.** And the IC50 (XF 498 (human CNS); [6])?
**A.** The IC50 was 0.66 µg/mL (≈ 1.42 µM).

**Q.** For `COc1cccc2c1C(=O)c1c(O)c3c(c(O)c1C2=O)C[C@@](O)(C(=O)CO)C[C@@H]3O[C@H]1C[C@H](N)[C@H](O)[C@H](C)O1` [Adriamycin, reference compound], which IC50 (SKMEL-2 (human melanoma); SK-MEL-2, 48 h, read-out: ED50) is on record?
**A.** The IC50 was 0.0108 µg/mL (≈ 0.0199 µM).

**Q.** What about the IC50 (HCT-15 (human colon); HCT-15, 48 h, read-out: ED50) of the same molecule?
**A.** Its IC50 is 1.67 µg/mL (≈ 3.07 µM).

**Q.** And the IC50 ([1]; A549, 48 h, read-out: ED50)?
**A.** Its IC50 is 0.0168 µg/mL (≈ 0.0309 µM).

**Q.** What about the IC50 (SKOV-3 (human ovarian); SK-OV-3, 48 h, read-out: ED50) of the same molecule?
**A.** Its IC50 is 0.0176 µg/mL (≈ 0.0324 µM).

**Q.** What about the IC50 (XF 498 (human CNS); XF498, 48 h, read-out: ED50) of the same molecule?
**A.** Its IC50 is 0.025 µg/mL (≈ 0.046 µM).

**Q.** `CCc1nc(OC)c(NC(=O)N2CCN(c3cccc(O)c3)CC2)cc1C` [Example 14, 1-[(6-Ethyl-2-methoxy-5-methylpyridin-3-yl)aminocarbonyl]-4-(3-hydroxyphenyl)piperazine] was tested. Which IC50 (SKMEL-2 (human melanoma); SK-MEL-2, 48 h, read-out: ED50) did it give?
**A.** Its IC50 is 0.001 µg/mL (≈ 0.0027 µM).

**Q.** What about the IC50 (HCT-15 (human colon); [3]) of the same molecule?
**A.** The IC50 was 0.007 µg/mL (≈ 0.0189 µM).

**Q.** What about the IC50 [1, 4] of the same molecule?
**A.** The IC50 was 0.022 µg/mL (≈ 0.0594 µM).

**Q.** And the IC50 (SKOV-3 (human ovarian); [5])?
**A.** Its IC50 is 0.02 µg/mL (≈ 0.054 µM).

**Q.** What about the IC50 (XF 498 (human CNS); [6]) of the same molecule?
**A.** The IC50 was 0.16 µg/mL (≈ 0.432 µM).

**Q.** `COc1cc(C)c(C)cc1NC(=O)N1CCN(c2ccccc2OC)CC1` [Example 183, 1-[(4,5-Dimethyl-2-methoxyphenyl)aminocarbonyl]-4-(2-methoxyphenyl)piperazine] was tested. Which IC50 (SKMEL-2 (human melanoma); [2]) did it give?
**A.** Its IC50 is 1.17 µg/mL (≈ 3.17 µM).

**Q.** And the IC50 (HCT-15 (human colon); [3])?
**A.** The IC50 was 2.09 µg/mL (≈ 5.66 µM).

**Q.** And the IC50 [1, 4]?
**A.** The IC50 was 0.42 µg/mL (≈ 1.14 µM).

**Q.** And the IC50 (SKOV-3 (human ovarian); [5])?
**A.** Its IC50 is 2.27 µg/mL (≈ 6.14 µM).

**Q.** What about the IC50 (XF 498 (human CNS); [6]) of the same molecule?
**A.** The IC50 was 1.41 µg/mL (≈ 3.82 µM).

**Q.** Which ED50 (SKMEL-2 (human melanoma); SK-MEL-2, 48 hours) does the source give for `N.N.[Cl][Pt][Cl]` [Cisplatin, reference compound] here?
**A.** The ED50 was 0.7147 µg/mL.

**Q.** What about the ED50 (HCT-15 (human colon); HCT 15, 48 hours) of the same molecule?
**A.** The ED50 was 3.0381 µg/mL.

**Q.** And the ED50 ([1]; A549, 48 hours)?
**A.** The ED50 was 0.8184 µg/mL.

**Q.** What about the ED50 (SKOV-3 (human ovarian); SK-OV-3, 48 hours) of the same molecule?
**A.** Its ED50 is 0.7134 µg/mL.

**Q.** What about the ED50 (XF 498 (human CNS); XF-498, 48 hours) of the same molecule?
**A.** Its ED50 is 0.7771 µg/mL.

**Q.** `CCc1nc(OC)c(N(C)C(=O)N2CCN(c3cc(OC)cc(OC)c3)CC2)cc1C` [Example 147, 1-[N-(6-Ethyl-2-methoxy-5-methylpyridin-3-yl)-N-methylaminocarbonyl]-4-(3,5-dimethoxyphenyl)piperazine] was tested. Which IC50 (SKMEL-2 (human melanoma); SK-MEL-2, 48 h, read-out: ED50) did it give?
**A.** The IC50 was 0.024 µg/mL (≈ 0.056 µM).

**Q.** And the IC50 (HCT-15 (human colon); [3])?
**A.** Its IC50 is 0.18 µg/mL (≈ 0.42 µM).

**Q.** What about the IC50 [1, 4] of the same molecule?
**A.** The IC50 was 0.031 µg/mL (≈ 0.0723 µM).

**Q.** And the IC50 (SKOV-3 (human ovarian); [5])?
**A.** The IC50 was 0.092 µg/mL (≈ 0.215 µM).

**Q.** What about the IC50 (XF 498 (human CNS); [6]) of the same molecule?
**A.** Its IC50 is 0.466 µg/mL (≈ 1.09 µM).
